From publication PMC9516332 (Frontiers in Oncology, 2022)
Read-outs that look alike come from different tables or passages of the source.

Test system: 134 cancer cell lines
Experiment: Cell viability assay (ATPlite, 72 hours), IC50 on cancer cell line panel

With `CNC(=O)c1ccc(-c2cnc3ncc(Cc4ccc5ncccc5c4)n3n2)cc1F` [capmatinib] the IC50 (Homo sapiens, Kasumi 1, read-out: IC50 in cell proliferation assay) was 25 µM, the IC50 (Homo sapiens, LC-2-ad, read-out: IC50 in cell proliferation assay) was greater than 31.6 µM and the IC50 (Homo sapiens, LNCaP-Clone-FGC, read-out: IC50 in cell proliferation assay) was greater than 31.6 µM. It also gave an IC50 (Homo sapiens, LS174T, read-out: IC50 in cell proliferation assay) greater than 31.6 µM, an IC50 (Homo sapiens, LS-411N, read-out: IC50 in cell proliferation assay) greater than 31.6 µM and an IC50 (Homo sapiens, LoVo, read-out: IC50 in cell proliferation assay) of 0.00186 µM. For the same molecule, the IC50 (Homo sapiens, MCF7, read-out: IC50 in cell proliferation assay) was greater than 31.6 µM, the IC50 (Homo sapiens, MDA-MB-231, read-out: IC50 in cell proliferation assay) was greater than 31.6 µM and the IC50 (Homo sapiens, MDA-MB-453, read-out: IC50 in cell proliferation assay) was greater than 31.6 µM. It also gave an IC50 (Homo sapiens, MDA-MB-468, read-out: IC50 in cell proliferation assay) of 30.8 µM, an IC50 (Homo sapiens, MG-63, read-out: IC50 in cell proliferation assay) greater than 31.6 µM and an IC50 (Homo sapiens, MIA PaCa-2, read-out: IC50 in cell proliferation assay) greater than 31.6 µM. It also gave an IC50 (Homo sapiens, MKN-45, read-out: IC50 in cell proliferation assay) of 0.004 µM, an IC50 (Homo sapiens, MOLM-13, read-out: IC50 in cell proliferation assay) of 6.01 µM and an IC50 (Homo sapiens, MOLT-4, read-out: IC50 in cell proliferation assay) greater than 31.6 µM. The IC50 (Homo sapiens, MV4-11, read-out: IC50 in cell proliferation assay) was 1.95 µM, the IC50 (Homo sapiens, MeWo, read-out: IC50 in cell proliferation assay) was greater than 31.6 µM and the IC50 (Homo sapiens, NCCIT, read-out: IC50 in cell proliferation assay) was greater than 31.6 µM. For the same molecule, the IC50 (Homo sapiens, NCI-H82, read-out: IC50 in cell proliferation assay) was greater than 31.6 µM, the IC50 (Homo sapiens, NCI-H460, read-out: IC50 in cell proliferation assay) was greater than 31.6 µM and the IC50 (Homo sapiens, NCI-H661, read-out: IC50 in cell proliferation assay) was greater than 31.6 µM. The IC50 (Homo sapiens, NCI-H716, read-out: IC50 in cell proliferation assay) was greater than 31.6 µM, the IC50 (Homo sapiens, NCI-H1650, read-out: IC50 in cell proliferation assay) was 9.45 µM and the IC50 (Homo sapiens, NCI-H1975, read-out: IC50 in cell proliferation assay) was greater than 31.6 µM. The IC50 (Homo sapiens, NCI-H2228, read-out: IC50 in cell proliferation assay) was greater than 31.6 µM, the IC50 (Homo sapiens, OVCAR-3, read-out: IC50 in cell proliferation assay) was greater than 31.6 µM and the IC50 (Homo sapiens, PFSK-1, read-out: IC50 in cell proliferation assay) was greater than 31.6 µM. The IC50 (Homo sapiens, RL95-2, read-out: IC50 in cell proliferation assay) was greater than 31.6 µM, the IC50 (Homo sapiens, RPMI-7951, read-out: IC50 in cell proliferation assay) was greater than 31.6 µM and the IC50 (Homo sapiens, RS4-11, read-out: IC50 in cell proliferation assay) was greater than 31.6 µM. For the same molecule, the IC50 (Homo sapiens, Rec1, read-out: IC50 in cell proliferation assay) was 3.02 µM, the IC50 (Homo sapiens, SHP77, read-out: IC50 in cell proliferation assay) was greater than 31.6 µM and the IC50 (Homo sapiens, SK-BR-3, read-out: IC50 in cell proliferation assay) was greater than 31.6 µM. It also gave an IC50 (Homo sapiens, SK-N-AS, read-out: IC50 in cell proliferation assay) greater than 31.6 µM, an IC50 (Homo sapiens, SK-N-FI, read-out: IC50 in cell proliferation assay) greater than 31.6 µM and an IC50 (Homo sapiens, SK-N-MC, read-out: IC50 in cell proliferation assay) greater than 31.6 µM. For the same molecule, the IC50 (Homo sapiens, SK-N-SH, read-out: IC50 in cell proliferation assay) was 9.7 µM, the IC50 (Homo sapiens, SNU-5, read-out: IC50 in cell proliferation assay) was 0.000951 µM and the IC50 (Homo sapiens, SNU-16, read-out: IC50 in cell proliferation assay) was greater than 31.6 µM. The IC50 (Homo sapiens, SNU-C2B, read-out: IC50 in cell proliferation assay) was greater than 31.6 µM, the IC50 (Homo sapiens, SU-DHL-1, read-out: IC50 in cell proliferation assay) was greater than 31.6 µM and the IC50 (Homo sapiens, SU-DHL-6, read-out: IC50 in cell proliferation assay) was greater than 31.6 µM. For the same molecule, the IC50 (Homo sapiens, SUP-T1, read-out: IC50 in cell proliferation assay) was greater than 31.6 µM, the IC50 (Homo sapiens, SW48, read-out: IC50 in cell proliferation assay) was greater than 31.6 µM and the IC50 (Homo sapiens, SW480, read-out: IC50 in cell proliferation assay) was greater than 31.6 µM. For the same molecule, the IC50 (Homo sapiens, SW626, read-out: IC50 in cell proliferation assay) was greater than 31.6 µM, the IC50 (Homo sapiens, SW780, read-out: IC50 in cell proliferation assay) was greater than 31.6 µM and the IC50 (Homo sapiens, SW837, read-out: IC50 in cell proliferation assay) was 7.23 µM. It also gave an IC50 (Homo sapiens, SW872, read-out: IC50 in cell proliferation assay) greater than 31.6 µM, an IC50 (Homo sapiens, SW900, read-out: IC50 in cell proliferation assay) greater than 31.6 µM and an IC50 (Homo sapiens, SW948, read-out: IC50 in cell proliferation assay) greater than 31.6 µM. It also gave an IC50 (Homo sapiens, SW982, read-out: IC50 in cell proliferation assay) greater than 31.6 µM, an IC50 (Homo sapiens, SW-620, read-out: IC50 in cell proliferation assay) greater than 31.6 µM and an IC50 (Homo sapiens, T98G, read-out: IC50 in cell proliferation assay) greater than 31.6 µM. The IC50 (Homo sapiens, TCC-SUP, read-out: IC50 in cell proliferation assay) was greater than 31.6 µM, the IC50 (Homo sapiens, THP-1, read-out: IC50 in cell proliferation assay) was greater than 31.6 µM and the IC50 (Homo sapiens, U2OS, read-out: IC50 in cell proliferation assay) was greater than 31.6 µM. The IC50 (Homo sapiens, U-87 MG, read-out: IC50 in cell proliferation assay) was 0.023 µM, the IC50 (Homo sapiens, U-118-MG, read-out: IC50 in cell proliferation assay) was greater than 31.6 µM and the IC50 (Homo sapiens, UMUC3, read-out: IC50 in cell proliferation assay) was greater than 31.6 µM. The IC50 (Hs766T, read-out: IC50 in cell proliferation assay) was greater than 31.6 µM, the IC50 (L-82, read-out: IC50 in cell proliferation assay) was greater than 31.6 µM and the IC50 (Rh30, read-out: IC50 in cell proliferation assay) was 7.37 µM.
